Among the data in ChEMBL document CHEMBL1156271, “Discovery and SAR of novel pyrazole-based thioethers as cathepsin S inhibitors: part 1” (Bioorg Med Chem Lett, 2010) are IC50 values, retold here.

For experiment [1], the target named is T1, Cathepsin S (Homo sapiens, UniProt P25774). Nature of the experiment: Inhibition of human cathepsin S.
For experiment [2], the target named is T1, Cathepsin S. Kind of experiment: Inhibition of cathepsin S in human JY cells assessed as inhibition of invariant chain degradation. It is filed as cell-based.

T1 sequence (P25774 whole entry): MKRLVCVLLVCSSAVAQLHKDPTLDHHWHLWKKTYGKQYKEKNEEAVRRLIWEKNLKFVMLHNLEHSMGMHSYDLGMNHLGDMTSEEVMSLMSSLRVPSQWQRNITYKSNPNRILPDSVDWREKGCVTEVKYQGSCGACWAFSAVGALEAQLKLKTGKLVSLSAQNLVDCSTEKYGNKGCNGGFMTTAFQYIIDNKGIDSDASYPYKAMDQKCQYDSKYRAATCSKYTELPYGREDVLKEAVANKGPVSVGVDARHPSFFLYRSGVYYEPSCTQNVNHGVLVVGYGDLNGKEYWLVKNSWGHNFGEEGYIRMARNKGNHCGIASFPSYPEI

Consider `CS(=O)(=O)N1CCc2c(c(-c3ccc(Cl)c(SCCO)c3)nn2CCCN2CCOCC2)C1`, for which, in experiment [1], the IC50 (as a rule, the point on the concentration scale where inhibition reaches its midpoint) turned out to be 960 nM.
For the molecule `CS(=O)(=O)N1CCc2c(c(-c3ccc(C(F)(F)F)c(SCCN4CCCCC4)c3)nn2CCCN2CCCC2)C1`, the IC50 in experiment [2] was found to be 470 nM.
As for `CN1CCN(CCSc2cc(-c3nn(CCCN4CCC(N5CCCC5=O)CC4)c4c3CN(S(C)(=O)=O)CC4)ccc2C(F)(F)F)CC1`, the half-maximal inhibitory concentration (IC50) in experiment [2] was determined as 130 nM.
The same measure, in the same setting: the value for `CS(=O)(=O)N1CCc2c(c(-c3ccc(C(F)(F)F)c(SCCNCc4ccccc4)c3)nn2CCCN2CCC(N3CCCC3=O)CC2)C1` was 460 nM.
Regarding `CS(=O)(=O)N1CCc2c(c(-c3ccc(C(F)(F)F)c(SCCN4CCCC4)c3)nn2CCCN2CCC(N3CCCC3=O)CC2)C1`, the IC50 in experiment [2] worked out at 80 nM.
Take `CS(=O)(=O)N1CCc2c(c(-c3ccc(C(F)(F)F)c(SCCN4CCC(O)CC4)c3)nn2CCCN2CCC(N3CCCC3=O)CC2)C1`: the IC50 in experiment [2] came to 350 nM.
As for `CS(=O)(=O)N1CCc2c(c(-c3ccc(C(F)(F)F)c(SCCN4CCOCC4)c3)nn2CCCN2CCC(N3CCCC3=O)CC2)C1`, the IC50 in experiment [2] turned out to be 680 nM.
On the same count and under the same terms, the value for `CS(=O)(=O)N1CCc2c(c(-c3ccc(C(F)(F)F)c(SCCN4CCC(c5ccccc5)CC4)c3)nn2CCCN2CCC(N3CCCC3=O)CC2)C1` was 950 nM.
For the molecule `CC(C)(C)C1CCN(CCSc2cc(-c3nn(CCCN4CCC(N5CCCC5=O)CC4)c4c3CN(S(C)(=O)=O)CC4)ccc2C(F)(F)F)CC1`, the IC50 in experiment [2] amounted to 330 nM.
As to `CC1CCN(CCSc2cc(-c3nn(CCCN4CCC(N5CCCC5=O)CC4)c4c3CN(S(C)(=O)=O)CC4)ccc2C(F)(F)F)CC1`, the IC50 in experiment [2] was found to be 810 nM.
Regarding `CS(=O)(=O)N1CCc2c(c(-c3ccc(C(F)(F)F)c(SCCN4CCC5CCCCC5C4)c3)nn2CCCN2CCC(N3CCCC3=O)CC2)C1` (centres undefined), the 50% inhibitory concentration (IC50) in experiment [2] was 460 nM; in experiment [1] it was 55 nM.
Consider `CS(=O)(=O)N1CCc2c(c(-c3ccc(C(F)(F)F)c(SCCN4CCCCC4)c3)nn2CCCN2CCOCC2)C1`, for which the half-maximal inhibitory concentration (IC50) in experiment [2] amounted to 3570 nM.
Consider `CS(=O)(=O)N1CCc2c(c(-c3ccc(C(F)(F)F)c(SCCN4CCCCC4)c3)nn2CCCN2CCC(N3CCCC3)CC2)C1`, for which the half-maximal inhibitory concentration (IC50) in experiment [2] turned out to be 320 nM.
